Experimental data as given in BindingDB's records for doi:10.1096/fj.02-0026fje (Chul, 2002).

Columns and labels:
[1] = biological target: T1, 17-beta-hydroxysteroid dehydrogenase type 1 (Homo sapiens, UniProt P14061); assay: Enzymatic Assay (Inhibition of Type 1 17beta-HSD); settings: pH 7.4; 37 °C
T1 sequence (P14061 whole entry): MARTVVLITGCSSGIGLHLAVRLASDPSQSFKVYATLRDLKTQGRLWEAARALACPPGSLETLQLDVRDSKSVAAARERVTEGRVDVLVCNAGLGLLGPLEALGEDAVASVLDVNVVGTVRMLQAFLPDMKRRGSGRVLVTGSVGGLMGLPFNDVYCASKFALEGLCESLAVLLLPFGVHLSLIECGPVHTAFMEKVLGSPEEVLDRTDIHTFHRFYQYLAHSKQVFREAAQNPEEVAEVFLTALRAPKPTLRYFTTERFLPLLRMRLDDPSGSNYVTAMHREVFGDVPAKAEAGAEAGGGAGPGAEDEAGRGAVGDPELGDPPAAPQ
Procedure: The enzymatic reaction was performed in the reaction buffer containing substrate, [14C]-estrone, and the test inhibitors. After the reaction, radiolabeled steroids were extracted from the reaction mixture, and solvent was evaporated to dryness. Steroids were dissolved and separated on TLC plates. Radioactivity signals were detected and quantified using a PhosphoImager (Sunny Vale, CA). The percentage of transformation of [14C]-E1 into [14C]-E2 was calculated. The IC50 values were calculated using an unweighted iterative least-squares method for four-parameter logistic curve fitting (DE50 program, CHUL Research Center, Quebec).

[2] = biological target: T1, 17-beta-hydroxysteroid dehydrogenase type 1; assay: Enzyme Inhibition on the Conversion of E2 to E1 by 17beta-HSD1; settings: pH 7.5; 37 °C
From the text: For steady-state kinetic study of hybrid inhibitors, a Fluorolog 3 instrument was used to monitor the fluorescent signal of NADPH formed during estradiol oxidation, through which the substrate conversion is monitored. The excitation wavelength was 340 nm, and the emission wavelength was 460 nm. […] Ki was further determined by a plot of Km vs. the inhibitor concentration.

| IC50 [1] | Ki [2] | SMILES |
| --- | --- | --- |
| 140 nM | – | C[C@]12CC[C@@H]3c4ccc(O)cc4CC[C@H]3[C@@H]1CC(CCCCCCCCCC(=O)OCC1OC(n3cnc4c(N)ncnc43)C(O)C1O)[C@@H]2O (stereo partly drawn) [[5-(6-amino-9H-purin-9-yl)-3,4-dihydroxyoxolan-2-yl]methyl 10-[(1S,10R,11S,14S,15S)-5,14-dihydroxy-15-methyltetracyclo[8.7.0.0^{2,7}.0^{11,15}]heptadeca-2,4,6-trien-13-yl]decanoate] |
| – | 250 µM | CCCCCCCCC(=O)OCC1OC(n2cnc3c(N)ncnc32)C(O)C1O (stereo not given) [[5-(6-amino-9H-purin-9-yl)-3,4-dihydroxyoxolan-2-yl]methyl nonanoate] |
| 93 nM | – | C[C@]12CC[C@@H]3c4ccc(O)cc4CC[C@H]3[C@@H]1CC(CCCCCCCC(=O)OCC1OC(n3cnc4c(N)ncnc43)C(O)C1O)[C@@H]2O (stereo partly drawn) [[5-(6-amino-9H-purin-9-yl)-3,4-dihydroxyoxolan-2-yl]methyl 8-[(1S,10R,11S,14S,15S)-5,14-dihydroxy-15-methyltetracyclo[8.7.0.0^{2,7}.0^{11,15}]heptadeca-2,4,6-trien-13-yl]octanoate] |
| 52 nM | 0.003 µM | C[C@]12CC[C@@H]3c4ccc(O)cc4CC[C@H]3[C@@H]1CC(CCCCCCCCC(=O)OCC1OC(n3cnc4c(N)ncnc43)C(O)C1O)[C@@H]2O (stereo not given in full) [EM1745] |
